Source: patent publication US20130022692A1, “Expression Modulator For Clock Gene Period” (SHISEIDO COMPANY, LTD., priority 2010, published 2013)

Tested on: Period1 gene
Assay: Period1 gene expression in cultured human skin fibroblastic cells (RT-PCR)
Type: cell-based
Settings: for Induction of expression rhythm and increase of Period1 gene expression: peak at 2 hours after stimulation, result in words
Method: As the cultured human fibroblastic cells, fibroblastic cells from normal human skin were purchased (Cell Application, Inc.) and used in the experiments. They were inoculated in DMEM medium supplemented with 10% FBS, 20 mM HEPES, Glutamax and antibacterial agents and cultured at 37° C. in 5% CO2. On the 6th day of culture, 50 ng/mL of cortisol or 10 μM of forskolin was added to each wells, and the samples were harvested at various times after time 0, which was defined as the time immediately after the addition of cortisol or forskolin. RNA was extracted from the cells with a commercially available RNA extraction kit, and the amounts of expression of the intended genes were measured by RT-PCR technology using commercially available PCR primers (Perfect Real Time Primer, Takara Bio). As for clock genes, amounts of expression of Period1 and Bmal1, which are involved in the core system, were determined. Similarly, the amounts of expression of a housekeeping gene RPLP0 were quantified and used as an internal standard to calculate the relative expression of the intended genes to RPLP0. […] Test substances were evaluated for the expression modulating effect on a Period gene based on the amount of gene expression at 2 hours after stimulation. To confirm the induction of expression rhythm for the Period gene, the amount of expression of the Period1 gene at 16 hours after stimulation was also determined. Fibroblastic cells from normal human skin (Cell Application, Inc.) were inoculated according to a method similar to those used above. Each test substance was added on the 6th day of culture to a final concentration of 100 ppm, and the cells were harvested 2 and 16 hours after stimulation. […] The amounts of expression of the Period1 gene were determined by RT-PCR technology using commercially available PCR primers (Perfect Real Time Primer, Takara Bio). The amounts of gene expression of a housekeeping gene RPLP0 were quantified and used as an internal standard to calculate the relative expression of the target genes with respect to RPLP0.

Structure (SMILES)	Induction of expression rhythm and increase of Period1 gene expression	Relative amount of Period1 gene expression (2 hours) (test substance 100 ppm, 2 hours after stimulation, relative to RPLP0, control 0.23, *p < 0.05, **p < 0.01)
C=C1CC/C=C(\C)CC[C@@H]2[C@@H]1CC2(C)C [beta-Caryophyllene]	significantly increase amounts of gene expression of Period1	0.44*
C[C@]12CCC(=O)C=C1CC[C@@H]1[C@@H]2[C@@H](O)C[C@@]2(C)[C@H]1CC[C@]2(O)C(=O)CO [cortisol, reference compound]	significantly increase amounts of gene expression of Period1	–
